The test deals with Prothrombin (Homo sapiens, UniProt P00734).
Molecule `CCOC(=O)[C@]1(NS(=O)(=O)Cc2ccccc2)CCCN(CC(=O)N[C@H]2CCCN(C(=N)N)C2O)C1=O` (stereo partly drawn) gave a Ki of 1 nM.
In the case of `N=C(N)N1CCC[C@H](NC(=O)CN2CCC[C@@](N)(Cc3ccccc3)C2=O)C1O` (stereo partly drawn) it was 1 nM; in that of `N=C(N)N1CCC[C@H](NC(=O)CN2CCC[C@H](NS(=O)(=O)Cc3ccccc3)C2=O)C1O` (stereo partly drawn), 1 nM.

For orientation: Ki means the dissociation constant of the complex between target and ligand, obtained from inhibition or displacement. A low value points to a stronger hold on the target.

The values are drawn from ChEMBL document CHEMBL1131973, “Asymmetric synthesis of novel quaternary alpha-hydroxy-delta-lactam dipeptide surrogates” (Bioorg Med Chem Lett, 1999).
